Measurements published in US20050222207A1, “Phosphodiesterase 4 inhibitors, including N-substituted diarylamine analogs” (priority 2003, published 2005).

Legend:
rats [1] = experiment: Passive avoidance in rats, in vivo test for learning and memory (MK-801 amnesia); parameters: species or system rat; conditions: MK-801 0.1 mg/kg, retention test 24 hours after shock, compared to vehicle, p<0.001
Method: The test was performed as previously described (Zhang, H.-T., Crissman, A. M., Dorairaj, N. R., Chandler, L. J., and O'Donnell, J. M., Neuropsychopharmacology, 2000, 23, 198-204.). The apparatus (Model E10-16SC, Coulbourn Instruments, Allentown, Pa.) consisted of a two-compartment chamber with an illuminated compartment connected to a darkened compartment by a guillotine door. The floor of the darkened compartment consisted of stainless steel rods through which an electric foot-shock could be delivered from a constant current source. All experimental groups were first habituated to the apparatus the day before the start of the experiment. During the training, the rat (Male Spraque-Dawley (Harlan) weighing 250 to 350 g) was placed in the illuminated compartment facing away from the closed guillotine door for 1 minute before the door was raised. The latency for entering the darkened compartment was recorded. After the rat entered the darkened compartment, the door was closed and a 0.5 mA electric shock was administered for 3 seconds. […] The latency for entering the darkened compartment was recorded for up to 180 seconds, at which time the trial was terminated.
(§1) All data were analyzed by analyses of variance (ANOVA); individual comparisons were made using Kewman-Keuls tests. […]

rats [2] = experiment: Radial arm maze task in rats, in vivo test for learning and memory (MK-801 amnesia); parameters: species or system rat; conditions: MK-801 0.1 mg/kg i.p., compared to control, p<0.01
Method: The test was performed as previously described (Zhang, H.-T., Crissman, A. M., Dorairaj, N. R., Chandler, L. J., and O'Donnell, J. M., Neuropsychopharmacology, 2000, 23, 198-204.). Five days after initial housing, rats (male Spraque-Dawley (Harlan) weighing 250 to 350 g) were placed in the eight-arm radial maze (each arm was 60×10×12 cm high; the maze was elevated 70 cm above the floor) for acclimation for two days. Rats were then placed individually in the center of the maze for 5 minutes with food pellets placed close to the food wells, and then, the next day, in the wells at the end of the arms; 2 sessions a day were conducted. Next, four randomly selected arms were then baited with one pellet of food each. The rat was restricted to the center platform (26 cm in diameter) for 15 seconds and then allowed to move freely throughout the maze until it collected all pellets of food or 10 minutes passed, whichever came first. Four parameters were recorded: 1) working memory errors, i.e., entries into baited arms that had already been visited during the same trial; 2) reference memory errors, i.e., entries into unbaited arms; 3) total arm entries; and 4) the test duration (seconds), i.e., the time spent in the collection of all the pellets in the maze. […]
as §1

SMILES | melting point | latency for entering the darkened compartment (rats [1]) | frequency of reference memory errors (rats [2]) | frequency of working memory errors (rats [2])
COc1cc(N(Cc2cncs2)c2ccc(C(=O)O)cc2)ccc1C(N)=O | 196.7 to 196.8 °C |  |  | 
C[C@]12N[C@H](Cc3ccccc31)c1ccccc12 [MK-801] |  | markedly reduced | increased | increased
